Laboratory results reported in PubChem BioAssay AID330 (DTP/NCI, 2004).
“And” between values parts separate entries of the source, which are not always exact repeats. Equal entries are not always repeated. Toxic doses and inconclusive results are not listed.

System: P388 leukemia ip, CD2F1 mice, survival T/C
Assay: NCI In Vivo Anticancer Drug Screen. Data for tumor model P388 Leukemia (intraperitoneal) in CD2F1 (CDF1) mice
Details: endpoint: median survival time, higher = longer survival
Experimental: The antitumor activity of compounds was measured in mice bearing transplantable tumors. Survival or tumor size were measured and the results are expressed as the measurement made in the treated group (T) divided by the measurement made in the vehicle treated control group (C). The tumor model used in this assay is P388 Leukemia (intraperitoneal) in CD2F1 (CDF1) mice

[1] = dose: 60.0 mg/kg/injection, schedule: Q01DX005 (ip), vehicle: saline with Tween-80
[2] = dose: 100.0 mg/kg/injection, schedule: Q04DX003 (ip), vehicle: saline
[3] = dose: 200.0 mg/kg/injection, schedule: Q04DX003 (ip), vehicle: saline
[4] = dose: 400.0 mg/kg/injection, schedule: Q04DX003 (ip), vehicle: saline

`Cc1ccc2occ3c(=O)n(C)nc-3c2c1` was tested, and the T/C [1] was 95 % of control, the T/C (dose: 120.0 mg/kg/injection, schedule: Q01DX005 (ip), vehicle: saline with Tween-80) was 91 % of control and the T/C (dose: 240.0 mg/kg/injection, schedule: Q01DX005 (ip), vehicle: saline with Tween-80) was 94 % of control.
With `CC(=O)c1c(C)cc(C)c(C(C)=O)c1C` the T/C (dose: 50.0 mg/kg/injection, schedule: Q01DX009 (ip), vehicle: saline) was 102 % of control, the T/C (dose: 100.0 mg/kg/injection, schedule: Q01DX009 (ip), vehicle: saline) was 96 % of control and the T/C (dose: 200.0 mg/kg/injection, schedule: Q01DX009 (ip), vehicle: saline) was 91 % of control.
`CCn1cnc2c(SC3CCCC3)ncnc21` was tested, and the T/C (dose: 100.0 mg/kg/injection, schedule: Q01DX009 (ip), vehicle: saline sonified) was 105 % of control and the T/C (dose: 200.0 mg/kg/injection, schedule: Q01DX009 (ip), vehicle: saline sonified) was 110 % of control.
`ClC(Cl)(Cl)CN1CCCCC1Cc1ccccc1` (configuration not stated) was tested, and the T/C (dose: 30.0 mg/kg/injection, schedule: Q01DX005 (ip), vehicle: Klucel (hydroxypropylcellulose) (HPC)) was 101 % of control and the T/C (dose: 60.0 mg/kg/injection, schedule: Q01DX005 (ip), vehicle: Klucel (hydroxypropylcellulose) (HPC)) was 100 % of control.
For `C/C=C/CC(/C(C)=N\[N+](C)(C)C)c1ccccc1` (configuration not stated), the T/C [2] was 107 % of control, the T/C [3] was 97 % of control and the T/C [4] was 99 % of control.
For `Cc1cc2ccccc2nc1-c1ccncc1`, the T/C (dose: 25.0 mg/kg/injection, schedule: Q04DX002 (ip), vehicle: Klucel (hydroxypropylcellulose) (HPC)) was 96 % of control, the T/C (dose: 50.0 mg/kg/injection, schedule: Q04DX002 (ip), vehicle: Klucel (hydroxypropylcellulose) (HPC)) was 96 % of control and the T/C (dose: 100.0 mg/kg/injection, schedule: Q04DX002 (ip), vehicle: Klucel (hydroxypropylcellulose) (HPC)) was 101 % of control. The T/C (dose: 200.0 mg/kg/injection, schedule: Q04DX002 (ip), vehicle: Klucel (hydroxypropylcellulose) (HPC)) was 103 % of control.
With `COC(=O)NCP(=O)(CNC(=O)OC)CNC(=O)OC` the T/C (dose: 50.0 mg/kg/injection, schedule: Q01DX009 (ip), vehicle: Klucel (hydroxypropylcellulose) (HPC)) was 100 % of control, the T/C (dose: 100.0 mg/kg/injection, schedule: Q01DX009 (ip), vehicle: Klucel (hydroxypropylcellulose) (HPC)) was 98 % of control and the T/C (dose: 200.0 mg/kg/injection, schedule: Q01DX009 (ip), vehicle: Klucel (hydroxypropylcellulose) (HPC)) was 100 % of control.
With `C[Se]C([Se]C)=C([Se]C)[Se]C` the T/C (dose: 15.0 mg/kg/injection, schedule: Q01DX005 (ip), vehicle: saline with Tween-80) was 107 % of control, the T/C (dose: 30.0 mg/kg/injection, schedule: Q01DX005 (ip), vehicle: saline with Tween-80) was 108 % of control and the T/C [1] was 100 % of control and 91 % of control.
`CCOC1=N[C@H](C)[C@H](C)N1` was tested, and the T/C (dose: 50.0 mg/kg/injection, schedule: Q01DX005 (ip), vehicle: saline) was 100 % of control and the T/C (dose: 100.0 mg/kg/injection, schedule: Q01DX005 (ip), vehicle: saline) was 103 % of control.
In the case of `COc1cccc(C=Nc2cc(C)ccn2)c1O.COc1cccc(C=Nc2cc(C)ccn2)c1O.[Cu]`, the T/C (dose: 6.25 mg/kg/injection, schedule: Q01DX005 (ip), vehicle: saline with Tween-80) was 99 % of control, the T/C (dose: 12.5 mg/kg/injection, schedule: Q01DX005 (ip), vehicle: saline with Tween-80) was 100 % of control and the T/C (dose: 25.0 mg/kg/injection, schedule: Q01DX005 (ip), vehicle: saline with Tween-80) was 96 % of control.
`Cc1cccc(-n2nc(C(=O)O)c(=O)[nH]c2=O)c1` was tested, and the T/C (dose: 100.0 mg/kg/injection, schedule: Q01DX001 (ip), vehicle: saline with Tween-80) was 104 % of control, the T/C (dose: 200.0 mg/kg/injection, schedule: Q01DX001 (ip), vehicle: saline with Tween-80) was 99 % of control and the T/C (dose: 400.0 mg/kg/injection, schedule: Q01DX001 (ip), vehicle: saline with Tween-80) was 95 % of control.
In the case of `Nc1ccc(S(=O)O)cc1`, the T/C (dose: 100.0 mg/kg/injection, schedule: Q04DX003 (ip), vehicle: saline with Tween-80) was 100 % of control, the T/C (dose: 200.0 mg/kg/injection, schedule: Q04DX003 (ip), vehicle: saline with Tween-80) was 100 % of control and the T/C (dose: 400.0 mg/kg/injection, schedule: Q04DX003 (ip), vehicle: saline with Tween-80) was 100 % of control.
With `CC(C)(C)OC(=O)NC1CCC2CCCCC2C1` (configuration not stated) the T/C [2] was 100 % of control, the T/C [3] was 104 % of control and the T/C [4] was 100 % of control.
With `Cc1nc(N)c2c3c(sc2n1)CCCC3` the T/C (dose: 50.0 mg/kg/injection, schedule: Q01DX005 (ip), vehicle: saline with Tween-80) was 95 % of control, the T/C (dose: 100.0 mg/kg/injection, schedule: Q01DX005 (ip), vehicle: saline with Tween-80) was 97 % of control and the T/C (dose: 200.0 mg/kg/injection, schedule: Q01DX005 (ip), vehicle: saline with Tween-80) was 100 % of control.
With `CNC(=S)N/N=C/Cn1ccc(=O)[nH]c1=O` the T/C (dose: 50.0 mg/kg/injection, schedule: Q01DX005 (ip), vehicle: Klucel (hydroxypropylcellulose) (HPC)) was 89 % of control and the T/C (dose: 100.0 mg/kg/injection, schedule: Q01DX005 (ip), vehicle: Klucel (hydroxypropylcellulose) (HPC)) was 90 % of control.
`Clc1ccc2c(NCCN3CCCCCC3)nc(C(Cl)(Cl)Cl)nc2c1` was tested, and the T/C (dose: 50.0 mg/kg/injection, schedule: Q01DX009 (ip), vehicle: saline with Tween-80) was 100 % of control, the T/C (dose: 100.0 mg/kg/injection, schedule: Q01DX009 (ip), vehicle: saline with Tween-80) was 104 % of control and the T/C (dose: 200.0 mg/kg/injection, schedule: Q01DX009 (ip), vehicle: saline with Tween-80) was 100 % of control.
For `C#CC(C)OCC(C)OC(C)=O` (configuration not stated), the T/C (dose: 150.0 mg/kg/injection, schedule: Q01DX009 (ip), vehicle: saline with Tween-80) was 88 % of control and the T/C (dose: 225.0 mg/kg/injection, schedule: Q01DX009 (ip), vehicle: saline with Tween-80) was 88 % of control.
